Results reported in PubChem BioAssay (NCI).
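Dose response: 5 concentrations. Exposure: 48 h. Format: 96-well plates. Endpoint: linear interpolation; highest concentration if not reached. GI50 = concentration required for 50% inhibition of growth. TGI marks complete inhibition of growth.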

Key:
Experiment in all cases: DTP human tumour cell line panel, 48 h
BT-549 breast = tested on: BT-549 breast
CCRF-CEM leukemia = tested on: CCRF-CEM leukemia
HOP-62 NSCLC = tested on: HOP-62 NSCLC
HOP-92 NSCLC = tested on: HOP-92 NSCLC
IGROV1 ovarian = tested on: IGROV1 ovarian
MCF7 breast = tested on: MCF7 breast
NCI-H460 lung = tested on: NCI-H460 lung
NCI-H522 lung = tested on: NCI-H522 lung
NCI/ADR-RES ovarian = tested on: NCI/ADR-RES ovarian
OVCAR-4 ovarian = tested on: OVCAR-4 ovarian

SMILES | TGI (BT-549 breast) [µM] | TGI (CCRF-CEM leukemia) [µM] | TGI (HOP-62 NSCLC) [µM] | TGI (HOP-92 NSCLC) [µM] | TGI (IGROV1 ovarian) [µM] | TGI (MCF7 breast) [µM] | TGI (NCI-H460 lung) [µM] | TGI (NCI-H522 lung) [µM] | TGI (NCI/ADR-RES ovarian) [µM] | TGI (OVCAR-4 ovarian) [µM] | GI50 (BT-549 breast) [µM] | GI50 (CCRF-CEM leukemia) [µM] | GI50 (HOP-62 NSCLC) [µM] | GI50 (HOP-92 NSCLC) [µM] | GI50 (IGROV1 ovarian) [µM] | GI50 (MCF7 breast) [µM] | GI50 (NCI-H460 lung) [µM] | GI50 (NCI-H522 lung) [µM] | GI50 (NCI/ADR-RES ovarian) [µM] | GI50 (OVCAR-4 ovarian) [µM]
O=S(=O)(O)ON=C1c2ccccc2-c2ccccc21 | > 100 | > 100 | > 100 | > 100 | > 100 | > 100 | > 100 | > 100 | > 100 | > 100 | – | – | – | – | – | – | – | – | – | –
COc1ccc2sc(-n3nc4ccccc4c3Nc3nc4ccc(OC)cc4s3)nc2c1 | 14 | > 100 | 4.43 | 15.5 | 8.47 | 42 | > 38.9 | 17.2 | 10.4 | 6.82 | – | – | – | – | – | – | – | – | – | –
CC1C2CC(C(S(=O)(=O)N3CCOCC3)/C2=N\O)C1(C)C (stereo not given) | > 100 | > 100 | > 100 | > 100 | > 100 | > 100 | > 100 | > 100 | > 100 | > 100 | – | – | – | – | – | – | – | – | – | –
Cc1cc(NC[C@H](O)[C@H](O)[C@H](O)CO)c(Sc2cc(=O)[nH]c(=O)[nH]2)cc1C | > 62.5 | > 62.5 | > 62.5 | > 62.5 | > 62.5 | > 62.5 | > 62.5 | > 62.5 | > 62.5 | > 62.5 | – | – | – | – | – | – | – | – | – | –
CC(=O)N(O)[C@@H]1CC[C@H](n2cnc3c(N)ncnc32)C1 | > 100 | > 100 | > 100 | > 100 | > 100 | > 100 | > 100 | > 100 | > 100 | > 100 | – | – | – | – | – | – | – | – | – | –
Cc1cc(Cc2c(F)c(F)c(C(c3cc(C)no3)c3c(F)c(F)c(F)c(F)c3F)c(F)c2F)on1 (stereo not given) | > 100 | > 100 | > 100 | > 100 | > 100 | > 100 | > 100 | > 100 | > 100 | > 100 | – | – | – | – | – | – | – | – | – | –
O=C(Cc1nccc2c1[nH]c1ccccc12)OC1C#CCSCC#C/C=C\1 (stereo not given) | > 100 | > 100 | > 100 | > 100 | > 100 | > 100 | > 100 | > 100 | > 100 | > 100 | – | – | – | – | – | – | – | – | – | –
Nc1nc(Cl)cc(NCCC2(CO)CCC2)n1 | > 100 | > 100 | > 100 | > 100 | > 100 | > 100 | > 100 | > 100 | > 100 | > 100 | – | – | – | – | – | – | – | – | – | –
Cc1noc2nnn(-c3ccc(Cl)cc3)c(=O)c12 | 13.5 | 2.48 | 29.7 | 17.9 | 19.2 | 13.6 | 21.3 | 2.24 | 29.8 | 57.3 | – | – | – | – | – | – | – | – | – | –
O=C1/C(=C/c2ccc(Cl)cc2)N=C(c2ccccc2)N1CCc1cccs1 | > 100 | > 100 | > 100 | 38.5 | > 100 | > 100 | > 100 | 74 | > 100 | > 100 | 22.1 | 22.7 | 47.3 | 3.49 | 36.7 | 18.4 | 20.1 | 15.3 | 23.7 | 7.72
COc1ccc(/C=C2\CCC(CNc3ccc(OC)cc3)C2=O)cc1 (stereo not given) | 26.8 | 29.9 | > 100 | 42.7 | 19.2 | 13.3 | > 85.3 | 11.6 | > 100 | 45.7 | – | – | – | – | – | – | – | – | – | –
O=C(/C=C/c1cc(O)c(O)cc1O)OCCc1ccccc1 | 62.1 | 7.17 | 75.4 | 20.5 | 40.5 | 20.9 | > 100 | 4.74 | 71.2 | 31.8 | – | – | – | – | – | – | – | – | – | –
CC1(CCCO)CCCCCCCCCC(C)(CCCO)C1=O (stereo not given) | > 100 | > 100 | > 100 | > 100 | > 100 | > 100 | > 100 | > 100 | > 100 | > 100 | – | – | – | – | – | – | – | – | – | –
C#CC1(O)C(COP(=O)(O)OCC2OC(n3ccc(NCCCCCCCCCCCCCCCCCC)nc3=O)C(O)C2O)OC(n2ccc(N)nc2=O)C1O (stereo not given) | 29.8 | > 100 | 46.7 | 59.8 | 6.02 | > 59.7 | 34.4 | 0.773 | 37.3 | 34.8 | – | – | – | – | – | – | – | – | – | –
Nc1nc(N)c2ncn(Cc3ccccc3CCl)c2n1 | > 100 | > 100 | > 100 | > 100 | > 100 | > 100 | > 100 | > 100 | > 100 | > 100 | – | – | – | – | – | – | – | – | – | –
CCOC(=O)C1OC(C2(C)OC3(OC4(C=CC3O)OC(C(C)C(=O)C(C)C(O)C(C)CC(C)c3c(Cl)cc(C)c(O)c3C(=O)O)C(C)CC4C)C(C)C2OC)CC1O (stereo not given) | 17.2 | 1.04 | 0.483 | 5.77 | 16.5 | 23.1 | 0.714 | 0.434 | 20.4 | 4.53 | – | – | – | – | – | – | – | – | – | –
